How the values were obtained:
Assay type in all cases: cell-based, human
OVCAR-8 = assay: NCI-60 growth inhibition (sulforhodamine B); conditions: OVCAR-8 (Ovarian Cancer), negative log of Molar conc., LCONC -8
COLO205 = assay: NCI-60 growth inhibition (sulforhodamine B); conditions: COLO 205 (Colon Cancer), negative log of Molar conc., LCONC -8
NCI-60 cell line panel = assay: NCI-60 cell line screen growth inhibition (sulforhodamine B), whole panel; conditions: compared among 1-3
From the text: In principle the phenotype elicited by any single small molecule can be due to either an on- or off-target effect; however, if multiple chemically distinct small molecules designed to target a single gene all elicit the same phenotype, one’s confidence in their on-target mechanism becomes greater. As such, we sought to apply our knowledge of the comparative potencies of 1-3 to test whether the simplest phenotype caused by EP300/CREBBP inhibitors – cell death – was consistent with their effects on histone acetylation and a putative on-target mechanism. […] Subsequently, the COMPARE algorithm was used to compare the patterns of growth inhibition elicited by 1-3 in the NCI-60 assay against the >150,000 compounds analyzed in the screen to date.[29] […] Finally, the specificity of CPI-1612 (3) was directly assessed using quantitative LC-MS analysis of histone acetylation in treated cells,[33] focusing on four abundant histone acetylation markers whose writers are well-characterized: H3K9Ac (written by KAT2A/B), H3K14Ac (KAT7), H3K18Ac (EP300/CREBBP), and H3K23Ac (KAT6A/B; Fig. 3e).[26] […]

[1] = Homo sapiens, read-out: GI50 NLOGVALUE (converted)

With `C[C@H](CN[C@@H](C(=O)Nc1ccc(-c2cnn(C)c2)cn1)c1ccccc1)c1ccc(C#N)cc1` [CPI-1612] the GI50 (OVCAR-8; [1]) was 40.7 µM, the IC50 (OVCAR-8; Homo sapiens, read-out: IC50 NLOGVALUE) was > 100 µM and the CC50 (OVCAR-8; Homo sapiens, read-out: LC50 NLOGVALUE) was > 100 µM. For the same compound, the “TGI NLOGVALUE” (OVCAR-8) was 4, the “TGI NLOGVALUE” (COLO205) was 4 and the GI50 (COLO205; [1]) was 0.0245 µM. The IC50 (COLO205; Homo sapiens, read-out: IC50 NLOGVALUE (converted)) was 0.417 µM and the “inhibition of cell growth, NCI-60 screen” value (NCI-60 cell line panel) was “most potent inhibitor of cell growth”.
